As a reminder, the IC50 is the concentration that inhibits the measured activity by half.

The assay deals with T1, NS5B from the BK strain (genotype 1b) (Hepatitis C virus genotype 1b, UniProt P26663).
T1 construct: NS5B from the BK strain (genotype 1b) is expressed in E. coli as a protein in which the 21 C-terminal amino acids are replaced; made in house; host or cells: E. coli
Kind of assay: Hepatitis C polymerase inhibition, NS5B BK strain, 33P-GTP filter assay. In kind it is biochemical. As to conditions: Table 1A; for inhibition at 20 µM: 20 μM compound, read-out: HCV pol % inh at 20 μM; for IC50: NS5B BK strain, read-out: HCV pol BK IC50. The text has this: The ability of the compounds of the present invention to inhibit Hepatitis C Polymerase was established by the following experimental procedure: • NS5B from the BK strain (genotype 1b) is expressed in E. coli as a protein in which the 21 C-terminal amino acids are replaced with a short linker and a hexahistidine tag ([…]). The purified protein is mixed with radioactive nucleotides and allowed to replicate a heteropolymeric RNA substrate, primed by an endogenous short hairpin, resulting in an approximately 760 nt product. The radioactive product is captured on a filter and quantitated after removal of the unincorporated nucleotides.
Reagents: • 10 mM uridine 5′-triphosphate (UTP) (Promega # p116B) • 10 mM adenine 5′-triphosphate (ATP) (Promega # p113B) • 10 mM cytidine 5′-triphosphate (CTP) (Promega # p114B) • 10 mM guanine 5′-triphosphate (GTP) (Promega # p115B) • Bovine Serum Albumin (BSA) 10 mg/ml NEB (100× at 10 mg/ml) #007-BSA • RNasein (Promega #N251X) 40 U/μl • A-[33P]-GTP (NEN-easytides NEG/606H 3000 Ci/mmol, 370 MBq/ml, 10 mCi/ml) • Falcon polypropylene 96 well plates (Becton Dickinson # 351190) • Millipore Multiscreen assasy system-96 well-filtration plate #MADE NOB 50 • Optiphase Supermix (Wallac) formulated by Fisher • Millipore Multiscreen liner for use in microbeta 1450-106 casette [(Wallac) Perkin Elmer #1450-433] • 1 M(N-[2-hydroxyethyl]piperazine-N′-[2-ethanesulfonic acid]) (HEPES), pH 7.3 • Amersham Pharmacia Biotec (US16924-500 ml) • 1 M MgCl2 (SIGMA #M1028) • Dithiothreitol (DTT) (solid) (SIGMA #D9779) • RNase free water (GIBCO-BRL #10977-023) • Dimethyl sulfoxide (Aldrich #27685-5) • Basilen Blue (Sigma, B5520) • 0.5M ethylenediaminetetraacetic acid (EDTA), pH 8 (GIBCO-BRL #15575-020) • Dibasic sodium phosphate (7-hydrate) (Na2HPO4.7H2O; Baker#3824-07) • Phosphoric acid (Baker, #0262.02)
Further reagent preparation: • 0.5 M Na Phosphate buffer. Per liter, weigh 134 gr Na2HPO4.7H2O, add water to 900 ml. Adjust pH to 7.0 with phosphoric acid. Top off with water to 1 L. • Dilute nucleotides 1:1000 to 10 μM (GTP and CTP) or 1:100 to 100 μM (ATP and UTP) into RNase free water.
Procedure: • (1) Compounds 10 μl at 10 μg/ml in 15% dimethylsulfoxide (DMSO)
When starting from 100 μg/ml compound stock in […]: • Dispense 5 μl 30% DMSO per well • Dispense 5 μl compound (100 μg/ml) per well.
When starting from 50 μg/ml compound stock in 15% DMSO: • Add 10 μl compound per well. • (2) Enzyme Mix:
Add 20 μl enzyme mix into each well of the assay plate. Incubate compound and enzyme at room temperature for 15 minutes • (3) Template mix—prepare ahead
Spin down a tube of RNA (5 μg/tube stored in 75% ethanol and 0.3 M sodium acetate) in a microcentrifuge for 20 minutes at 4° C. One tube is enough for 1–1.5 plates. Remove as much ethanol from the tube as possible by inverting the tube. Be gentle, pellet RNA may not adhere to the tube. Vacuum dry the RNA. Resuspend the RNA by adding 1 ml of DEPC water, close the cap of the tube tightly. To dissolve RNA, incubate RNA solution on ice for ˜60 minutes and gently vortex. Spin briefly to ensure all RNA solution is down to the bottom of the tube before opening cap. Gently transfer RNA solution into a 5 ml or larger tube. Add another 3 ml of DEPC water (total 4 ml of volume).
Add the following volumes of reagents
Add 20 μl template mix per reaction (i.e. 20 ng of pOF per reaction or ˜3 nM) • (4) Incubate reaction at room temperature (22–25° C.) for 2 hours. • (5) Stop reaction by adding 50 μl of 170 mM EDTA. • Final concentration of EDTA is 85 mM. • (6) Prewet filters of Millipore multiscreen assay plate by adding 200 μl of 0.5 M sodium phosphate buffer, pH 7.0 into each well. Let stand at room temperature for 2–3 minutes. • (7) Place the multiscreen filter plate onto a Millipore Manifold and turn on vacuum to allow buffer to flow through. Turn off vacuum. Transfer 80 μl of the reaction product into each well of the filter plate. Let stand for 2–3 minutes. […]

T1 sequence (P26663 2420-2989): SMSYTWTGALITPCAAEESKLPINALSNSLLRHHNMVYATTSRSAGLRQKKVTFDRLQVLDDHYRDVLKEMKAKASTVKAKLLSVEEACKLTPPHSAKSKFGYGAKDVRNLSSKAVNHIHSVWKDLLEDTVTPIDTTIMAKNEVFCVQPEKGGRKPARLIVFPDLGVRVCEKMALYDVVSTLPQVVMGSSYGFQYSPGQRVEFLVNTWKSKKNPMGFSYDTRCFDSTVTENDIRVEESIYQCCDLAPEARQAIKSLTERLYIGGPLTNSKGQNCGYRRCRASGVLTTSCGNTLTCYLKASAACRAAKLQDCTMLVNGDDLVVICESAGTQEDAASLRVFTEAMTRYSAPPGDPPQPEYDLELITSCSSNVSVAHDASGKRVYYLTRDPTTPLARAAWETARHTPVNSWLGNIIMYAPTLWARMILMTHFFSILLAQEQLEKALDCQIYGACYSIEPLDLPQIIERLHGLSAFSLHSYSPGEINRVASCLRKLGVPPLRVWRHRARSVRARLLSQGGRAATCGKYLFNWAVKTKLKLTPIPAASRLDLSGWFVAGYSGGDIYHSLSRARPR

`O=C(O)CC1(c2ccoc2)OCCc2c1[nH]c1c(Cl)ccc(Cl)c21` (stereo not shown) [Example 53, [5,8-dichloro-1-(3-furyl)-1,3,4,9-tetrahydropyrano[3,4-b]indol-1-yl]acetic acid]: the inhibition at 20 µM stood at 62% and the concentration for half-maximal inhibition (IC50) amounted to 13 µM. Consider `CCC1(CC(=O)O)OCCc2c1[nH]c1c(Cl)cc(C)c(Br)c21` (stereo not shown) [Example 174, (5-bromo-8-chloro-1-ethyl-6-methyl-1,3,4,9-tetrahydropyrano[3,4-b]indol-1-yl)acetic acid], for which the inhibition at 20 µM is 70% and the IC50 is over 5 µM. Turning to `O=C(O)CC1(c2ccccc2)OCCc2c1[nH]c1c(Cl)cc(Cl)c(Cl)c21` (stereo not shown) [Example 160, (5,6,8-trichloro-1-phenyl-1,3,4,9-tetrahydropyrano[3,4-b]indol-1-yl)acetic acid], the inhibition at 20 µM was 15% and the IC50 was over 20 µM. Taken in the same sequence, the figures for `CCCC1(CC(=O)O)OCCc2c1[nH]c1c(F)ccc(Br)c21` (stereo not shown) [Example 152, (5-bromo-8-fluoro-1-propyl-1,3,4,9-tetrahydropyrano[3,4-b]indol-1-yl)acetic acid] were 87% and 1 µM. The corresponding values for `Cc1cc(Cl)c2[nH]c3c(c2c1Br)CCOC3(CC(=O)O)C(C)C` (stereo not shown) [Example 176, (5-bromo-8-chloro-1-isopropyl-6-methyl-1,3,4,9-tetrahydropyrano[3,4-b]indol-1-yl)acetic acid] are 49% and over 5 µM. As for `CC(C)C1(CC(=O)O)OCCc2c1[nH]c1c(Cl)cc(Cl)cc21` (stereo not shown) [Example 102, (6,8-dichloro-1-isopropyl-1,3,4,9-tetrahydropyrano[3,4-b]indol-1-yl)acetic acid], the inhibition at 20 µM was determined as 51% and the IC50 was found to be 21.7 µM. The corresponding values for `CC1(CC(=O)O)OCCc2c1[nH]c1c(Cl)ccc(C(F)(F)F)c21` (stereo not shown) [Example 129, [8-chloro-1-methyl-5-(trifluoromethyl)-1,3,4,9-tetrahydropyrano[3,4-b]indol-1-yl]acetic acid] are 45% and over 20 µM. On to `CC(C)C1(CC(=O)O)OCCc2c1[nH]c1c(Cl)ccc(C(F)(F)F)c21` (stereo not shown) [Example 132, [8-chloro-1-isopropyl-5-(trifluoromethyl)-1,3,4,9-tetrahydropyrano[3,4-b]indol-1-yl]acetic acid], for which the inhibition at 20 µM stood at 78% and the half-inhibitory concentration (IC50) stood at 9.5 µM. Consider `CCC[C@@]1(CC(=O)O)OCCc2c1[nH]c1c(C)ccc(C#N)c21` [Example 3, [(S)-5-cyano-8-methyl-1-propyl-1,3,4,9-tetrahydropyrano[3,4-b]indol-1-yl]acetic acid], for which the concentration for half-maximal inhibition (IC50) stood at 2.4 µM. `O=C(O)CC1(c2ccc([N+](=O)[O-])cc2)OCCc2c1[nH]c1cccc(Cl)c21` (stereo not shown) [Example 18, [5-chloro-1-(4-nitrophenyl)-1,3,4,9-tetrahydropyrano[3,4-b]indol-1-yl]acetic acid]: the inhibition at 20 µM is under 5% and the IC50 was over 20 µM. Taken in the same sequence, the figures for `Cc1ccc(F)c2c3c([nH]c12)C(C)(CC(=O)O)OCC3` (stereo not shown) [Example 140, (5-fluoro-1,8-dimethyl-1,3,4,9-tetrahydropyrano[3,4-b]indol-1-yl)acetic acid] were 28% and over 20 µM. Taken in the same sequence, the figures for `Cc1cc(Cl)c2[nH]c3c(c2c1C#N)CCOC3(CC(=O)O)c1ccccc1` (stereo not shown) [Example 187, (8-chloro-5-cyano-6-methyl-1-phenyl-1,3,4,9-tetrahydropyrano[3,4-b]indol-1-yl)acetic acid] were 61% and over 5 µM.

In the case of `N#Cc1cccc2[nH]c3c(c12)CCOC3(CC(=O)O)c1ccccc1F` (stereo not shown) [Example 66, [5-cyano-1-(2-fluorophenyl)-1,3,4,9-tetrahydropyrano[3,4-b]indol-1-yl]acetic acid], the inhibition at 20 µM came to 28% and the IC50 is over 20 µM. On to `CCCC1(CC(=O)O)OCCc2c1[nH]c1c(F)cc(F)c(C#N)c21` (stereo not shown) [Example 195, (5-cyano-6,8-difluoro-1-propyl-1,3,4,9-tetrahydropyrano[3,4-b]indol-1-yl)acetic acid], for which the inhibition at 20 µM worked out at 90% and the IC50 turned out to be 0.27 µM.

As for `CCCC1(CC(=O)O)OCCc2c1[nH]c1c(F)ccc(-c3ccc(OC)cc3)c21` (stereo not shown) [Example 149, [8-fluoro-5-(4-methoxyphenyl)-1-propyl-1,3,4,9-tetrahydropyrano[3,4-b]indol-1-yl]acetic acid], the inhibition at 20 µM was under 11% and the IC50 was determined as 16 µM. Taken in the same sequence, the figures for `CCC1(CC(=O)O)OCCc2c1[nH]c1c(Cl)ccc(C(F)(F)F)c21` (stereo not shown) [Example 130, [8-chloro-1-ethyl-5-(trifluoromethyl)-1,3,4,9-tetrahydropyrano[3,4-b]indol-1-yl]acetic acid] were 77% and 5.5 µM. The corresponding values for `CCCC1(CC(=O)O)OCCc2c1[nH]c1c(Cl)cc(Cl)cc21` (stereo not shown) [Example 101, (6,8-dichloro-1-propyl-1,3,4,9-tetrahydropyrano[3,4-b]indol-1-yl)acetic acid] are 89% and 1.5 µM.

For `O=C(O)CC1(c2cccc([N+](=O)[O-])c2)OCCc2c1[nH]c1cccc(Br)c21` (stereo not shown) [Example 29, [5-bromo-1-(3-nitrophenyl)-1,3,4,9-tetrahydropyrano[3,4-b]indol-1-yl]acetic acid], the inhibition at 20 µM was under 5% and the half-inhibitory concentration (IC50) was over 20 µM. Taken in the same sequence, the figures for `C/C=C/CCC1(CC(=O)O)OCCc2c1[nH]c1c(Cl)cc(C)c(C#N)c21` (stereo not shown) [Example 186, {8-chloro-5-cyano-6-methyl-1-[(3E)-pent-3-enyl]-1,3,4,9-tetrahydropyrano[3,4-b]indol-1-yl}acetic acid] were 2% and over 5 µM. The corresponding values for `CC(C)C1(CC(=O)O)OCCc2c1[nH]c1c(Cl)cc(Cl)c(Cl)c21` (stereo not shown) [Example 157, (5,6,8-trichloro-1-isopropyl-1,3,4,9-tetrahydropyrano[3,4-b]indol-1-yl)acetic acid] are 89% and 0.6 µM.

Take `Cc1cc(F)c(C#N)c2c3c([nH]c12)C(CC(=O)O)(c1ccc(C(=O)O)cc1)OCC3` (stereo not shown) [Example 209, 4-[1-(carboxymethyl)-5-cyano-6-fluoro-8-methyl-1,3,4,9-tetrahydropyrano[3,4-b]indol-1-yl]benzoic acid]: the inhibition at 20 µM came to 63% and the concentration for half-maximal inhibition (IC50) turned out to be 17.9 µM. The corresponding values for `CCCCC1(CC(=O)O)OCCc2c1[nH]c1c(Cl)cc(C)c(Br)c21` (stereo not shown) [Example 177, (5-bromo-1-butyl-8-chloro-6-methyl-1,3,4,9-tetrahydropyrano[3,4-b]indol-1-yl)acetic acid] are 70% and 4 µM.
